# Laboratory results published in BindingDB's records for doi:10.1016/j.bmcl.2003.08.015 (The University of Birmingham, 2003).
# Biological target: T1, 3-oxoacyl-[acyl-carrier-protein] synthase 3 (Mycobacterium tuberculosis (strain ATCC 25618 / H37Rv), UniProt P9WNG3)
# T1 sequence (P9WNG3 whole entry): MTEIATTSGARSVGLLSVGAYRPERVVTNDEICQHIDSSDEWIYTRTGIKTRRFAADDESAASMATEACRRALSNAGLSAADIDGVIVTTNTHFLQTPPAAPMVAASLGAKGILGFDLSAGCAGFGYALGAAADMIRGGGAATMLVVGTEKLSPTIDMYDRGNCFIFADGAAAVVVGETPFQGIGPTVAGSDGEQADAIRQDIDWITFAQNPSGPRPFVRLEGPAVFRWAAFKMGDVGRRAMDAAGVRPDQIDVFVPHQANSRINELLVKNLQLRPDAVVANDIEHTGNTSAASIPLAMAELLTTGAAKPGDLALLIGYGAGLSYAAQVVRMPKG
# Experiment: ChEBML_37595
# Text: In vitro inhibitory activity against the recombinant Mycobacterium tuberculosis Beta-ketoacyl-ACP synthase III mtFabH condensing enzyme.
row,SMILES,IC50 [µM]
1,"CC1C(=O)SC(C)(Cc2cccc(Oc3ccccc3)c2)C1=O (configuration not stated) [4-Hydroxy-3,5-dimethyl-5-(3-phenoxy-benzyl)-5H-thiophen-2-one]",52
2,"Cc1ccc(-c2ccc(CC3(C)SC(=O)C(C)C3=O)cc2)cc1 (configuration not stated) [4-Hydroxy-3,5-dimethyl-5-(4'-methyl-biphenyl-4-ylmethyl)-5H-thiophen-2-one]",52
